Like-named read-outs stand apart in the source and are kept apart here.
Key:
[1] = GI permeability, 50 μM, 25 °C, 3 h
[2] = test system: SARS-CoV-2 virus strain hCoV-19/Taiwan/4/2020; type: cell-based
[3] = test system: SARS-CoV-2; settings: read-out: Anti-SARS-CoV-2 IC50; literature value; cited from earlier work
[4] = test system: TMEM16F; type: cell-based; settings: 1 h treatment, Vero E6 cells, annexin XII
[5] = in vitro; settings: PAMPA
[6] = test system: SARS-CoV-2; assay: Quantification of SARS-CoV-2 viral load via antibody staining; type: cell-based
[7] = test system: COVID-19; settings: non-hospitalized adult patients with mild-to-moderate COVID-19, phase 3 study; cited from earlier work

Row | Compound | PAMPA [1] | antiviral efficacy in CPE screening [2] | further results
1 | 5-Chloro-N-(3-hydroxybenzyl)-2-hydroxybenzamide [Compound 13] | 15.9 10^−6 cm/s | inactive | 
2 | 5-Chloro-N-(4-hydroxybenzyl)-2-hydroxybenzamide [Compound 14] | 33.1 10^−6 cm/s | inactive | 
3 | O=C(Nc1ccc([N+](=O)[O-])cc1Cl)c1cc(Cl)ccc1O [Compound 1, 5-Chloro-N-(2-chloro-4-nitrophenyl)-2-hydroxybenzamide] | 8.5 10^−6 cm/s |  | IC50 [3]: 340 nM; phosphatidylserine externalization triggered by ionomycin ([4]; 100 nM): significantly reduced the signal of phosphatidylserine on cell surface
4 | O=C(Nc1ccccc1)c1cc(Cl)ccc1O [Compound 2, 5-Chlorosalicylanilide] | 16.0 10^−6 cm/s | antiviral efficacy that were superior to their cytotoxicity | 
5 | O=C(Nc1ccc([N+](=O)[O-])cc1)c1cc(Cl)ccc1O [Compound 3, 5-Chloro-N-(4-nitrophenyl)-2-hydroxybenzamide] |  | antiviral efficacy that were superior to their cytotoxicity | Papp [5]: 12.4 ×10⁻⁶ cm/s
6 | O=C(Nc1cccc([N+](=O)[O-])c1)c1cc(Cl)ccc1O [Compound 4, 5-Chloro-N-(3-nitrophenyl)-2-hydroxybenzamide] | 19.5 10^−6 cm/s | antiviral efficacy that were superior to their cytotoxicity | 
7 | O=C(Nc1ccc([N+](=O)[O-])c(Cl)c1)c1cc(Cl)ccc1O [Compound 5, 5-Chloro-N-(3-chloro-4-nitrophenyl)-2-hydroxybenzamide] |  |  | anti-SARS-CoV-2 activity relative to niclosamide [6]: 7 fold
8 | O=C(Nc1cccc(Cl)c1)c1cc(Cl)ccc1O [Compound 6, 5-Chloro-N-(3-chlorophenyl)-2-hydroxybenzamide] | 8.6 10^−6 cm/s | antiviral efficacy that were superior to their cytotoxicity | 
9 | O=C(Nc1ccc(F)c(Cl)c1)c1cc(Cl)ccc1O [Compound 7, 5-Chloro-N-(3-chloro-4-fluorophenyl)-2-hydroxybenzamide] | 11.5 10^−6 cm/s | diminished | 
10 | O=C(Nc1ccc(F)cc1)c1cc(Cl)ccc1O [Compound 8, 5-Chloro-N-(4-fluorophenyl)-2-hydroxybenzamide] |  | inactive | Papp [5]: 18.2 ×10⁻⁶ cm/s
11 | O=C(Nc1cccc(F)c1)c1cc(Cl)ccc1O [Compound 9, 5-Chloro-N-(3-fluorophenyl)-2-hydroxybenzamide] | 3.7 10^−6 cm/s | inactive | 
12 | O=C(Nc1ccc(C(F)(F)F)cc1)c1cc(Cl)ccc1O [Compound 10, 5-Chloro-N-(4-trifluoromethylphenyl)-2-hydroxybenzamide] | 6.9 10^−6 cm/s | antiviral efficacy that were superior to their cytotoxicity | 
13 | O=C(Nc1cccc(C(F)(F)F)c1)c1cc(Cl)ccc1O [Compound 11, 5-Chloro-N-(3-trifluoromethylphenyl)-2-hydroxybenzamide] | 4.2 10^−6 cm/s | antiviral efficacy that were superior to their cytotoxicity | 
14 | CC(C)(C)c1cccc(NC(=O)c2cc(Cl)ccc2O)c1 [Compound 12, 5-Chloro-N-(3-tert-butylphenyl)-2-hydroxybenzamide] | 18.7 10^−6 cm/s | antiviral efficacy that were superior to their cytotoxicity | 
15 | O=C(Nc1ccc(N2CCCCC2)cc1)c1cc(Cl)ccc1O [Compound 15, 5-Chloro-N-(4-(piperidin-1-yl)phenyl)-2-hydroxybenzamide] | 43.3 10^−6 cm/s | inactive | 
16 | Cc1ccc(CNC(=O)c2cc(Cl)ccc2O)cc1 [Compound 16, 5-Chloro-N-(4-methylbenzyl)-2-hydroxybenzamide] | 42.6 10^−6 cm/s | did not show viral inhibition | 
17 | Cc1cccc(CNC(=O)c2cc(Cl)ccc2O)c1 [Compound 17, 5-Chloro-N-(3-methylbenzyl)-2-hydroxybenzamide] | 28.4 10^−6 cm/s | did not show viral inhibition | 
18 | O=C(Nc1ccc([N+](=O)[O-])cc1Cl)c1ccccc1O [Compound 18, N-(2-chloro-4-nitrophenyl)-2-hydroxybenzamide] | 15.3 10^−6 cm/s | antiviral efficacy that were superior to their cytotoxicity | 
19 | O=C(Nc1ccc([N+](=O)[O-])cc1Cl)c1ccccc1 [Compound 19, N-(2-chloro-4-nitrophenyl)benzamide] | 42.2 10^−6 cm/s |  | 
20 | Cc1ccc(O)c(C(=O)Nc2ccc([N+](=O)[O-])cc2Cl)c1 [Compound 20, 5-Methyl-N-(2-chloro-4-nitrophenyl)-2-hydroxybenzamide] | 20.9 10^−6 cm/s | diminished | 
21 | Cc1ccc(C(=O)Nc2ccc([N+](=O)[O-])cc2Cl)c(O)c1 [Compound 21, 4-Methyl-N-(2-chloro-4-nitrophenyl)-2-hydroxybenzamide] | 6.1 10^−6 cm/s | diminished | 
22 | O=C(Nc1ccc([N+](=O)[O-])cc1Cl)c1cc(F)ccc1O [Compound 22, 5-Fluoro-N-(2-chloro-4-nitrophenyl)-2-hydroxybenzamide] | 30.7 10^−6 cm/s | diminished | 
23 | O=C(Nc1ccc(O[C@@H]2O[C@H](CO)[C@@H](O)[C@H](O)[C@H]2O)cc1)c1cc(Cl)ccc1O [Compound 27, 5-Chloro-N-(4-phenyl-β-D-glucopyranoside)-2-hydroxybenzamide] | 1.9 10^−6 cm/s | inactive | 
24 | CC(C)C(=O)OC[C@H]1O[C@@H](n2ccc(NO)nc2=O)[C@H](O)[C@@H]1O [Molnupiravir] |  |  | reduction of the risk of hospitalization or death [7]: 30%
25 | Cc1c(O)cccc1C(=O)N[C@@H](CSc1ccccc1)[C@H](O)CN1C[C@H]2CCCC[C@H]2C[C@H]1C(=O)NC(C)(C)C [Nelfinavir] |  |  | phosphatidylserine externalization triggered by ionomycin ([4]; 500 nM): no inhibition

Source: publication PMC8933873 (European Journal of Medicinal Chemistry, 2022)
